Experimental data taken from PMC6923765, “Structural Design, Synthesis, and Preliminary Biological Evaluation of Novel Dihomooxacalix[4]arene-Based Anti-tumor Agents” (Frontiers in Chemistry, 2019).
Where two headings read alike, the source gives them in different places.

How the values were obtained:
[1] = tested on: MCF-7 cells (human breast cancer cells); experiment: SRB cytotoxicity assay, MCF-7 cells; format: cell-based; conditions: for inhibition at 10 µM: MCF7, 10 μM, 72 h
Procedure: (§1) A549 cells (human lung carcinoma cells), MCF-7 cells (human breast cancer cells), HeLa cells (human cervical cancer cells), HepG2 cells (human hepatocellular carcinoma cells), and HUVEC cells (human umbilical vein endothelial cells) were kindly provided by WeiFang Caleb Pharmaceuticals, Inc. A549 cells were cultured in Ham's F12K medium containing 10% fetal bovine serum, 2 mM L-glutamine, and 1.5 g/L sodium bicarbonate; MCF-7 cells were cultured on cell culture flask using RPMI 1640 medium with 2 mM L-glutamine adjusted to contain 1.5 g/L sodium bicarbonate, 4.5 g/L glucose, 10 mM HEPES, 1.0 mM sodium pyruvate, and 10% fetal bovine serum. Hela cells were cultured on Cell culture flask using 2 mM L-glutamine adjusted to contain 1.5 g/L sodium bicarbonate, 4.5 g/L glucose, 10 mM HEPES, and 1.0 mM sodium pyruvate in RPMI 1640 medium supplemented with 0.5 mg/ml G418 and 10% fetal bovine serum. HepG2 cells were cultured in minimum essential medium (Eagle) with 2 mM L-glutamine, Earle's BSS, 1.5 g/L sodium bicarbonate, 0.1 mM non-essential amino acids, 1.0 mM sodium pyruvate, and 10% fetal bovine serum. HUVEC cells were cultured in M199 medium containing 2 mM L-glutamine adjusted to contain 1.5 g/L sodium bicarbonate, 4.5 g/L glucose, 10 mM HEPES, 1.0 mM sodium pyruvate, ECGS, and 10% fetal bovine serum. All cells were cultured at 37°C in 5% CO2.
(§2) The cell proliferation of adherent cells was determined by sulforhodamine B assay (SRB) (Quan et al., [2009]; Li et al., [2017]). All cells were cultured in culture medium containing 10% fetal bovine serum and have been in the logarithmic growth phase. All cell types were seeded in a 96-well culture plate at a concentration of 1–5 × 10^4 cells per well at 37°C in a 5% CO2 incubator for 24 h. The cells were then exposed to seven drug concentrations of dihomooxacalix[4]arene derivatives for 72 h with each concentration located in three wells. Then, the cells were fixed with trichloroacetic acid (TCA). After washing, SRB working solution was added to the cells to […]. SRB combined with protein was dissolved in Tris base. OD values were measured for each well with a SPECTRA max 190 Cell microplate reader under 540 nm wavelength. According to the OD value, the cell growth inhibition rate was calculated.

[2] = tested on: A549 cells (human lung carcinoma cells); experiment: SRB cytotoxicity assay, A549 cells; format: cell-based
Procedure: as §1, §2

[3] = tested on: HeLa cells (human cervical cancer cells); experiment: SRB cytotoxicity assay, HeLa cells; format: cell-based
Procedure: as §1, §2

[4] = tested on: HepG2 cells (human hepatocellular carcinoma cells); experiment: SRB cytotoxicity assay, HepG2 cells; format: cell-based
Procedure: as §1, §2

[5] = tested on: HUVEC cells (human umbilical vein endothelial cells); experiment: SRB cytotoxicity assay, HUVEC normal cells; format: cell-based
Procedure: as §1, §2

[6] = 72 h, SRB, read-out: IC50 (μM) A549
[7] = Homo sapiens, HUVEC, 72 h, 10 μM, SRB, toxicity to normal cells
[8] = MCF7, 72 h, SRB, read-out: IC50 (μM) MCF-7
[9] = 72 h, SRB, read-out: IC50 (μM) HeLa
[10] = 72 h, SRB, read-out: IC50 (μM) HepG2

| SMILES | melting point | inhibition at 10 µM ([1]; SRB) | inhibition at 10 µM ([2]; 72 h, SRB) | IC50 [2, 6] | inhibition at 10 µM ([3]; 72 h, SRB) | inhibition at 10 µM ([4]; 72 h, SRB) | inhibition at 10 µM [5, 7] | IC50 ([1]; MCF7, printed in the % inhibition column of Table 1, read-out: IC50 MCF-7 (positive control)) | IC50 ([2]; printed in the % inhibition column of Table 1, read-out: IC50 A549 (positive control)) | IC50 ([3]; HeLa, printed in the % inhibition column of Table 1, read-out: IC50 HeLa (positive control)) | IC50 ([4]; printed in the % inhibition column of Table 1, read-out: IC50 HepG2 (positive control)) | IC50 ([5]; Homo sapiens, HUVEC, printed in the % inhibition column of Table 1, read-out: IC50 HUVEC (positive control)) | IC50 [1, 8] | IC50 [3, 9] | IC50 [4, 10] | % inhibition at 10 μM HUVEC ([5]; 10 μM, 72 h, SRB, toxicity to normal cells) |
| --- | --- | --- | --- | --- | --- | --- | --- | --- | --- | --- | --- | --- | --- | --- | --- | --- |
| CCCCCNC(=O)COc1c2cc(C(C)(C)C)cc1Cc1cc(C(C)(C)C)cc(c1O)Cc1cc(C(C)(C)C)cc(c1OCC(=O)NCCCCC)Cc1cc(C(C)(C)C)cc(c1O)COC2 [Compound 4L, 7,13,19,25-tetra-tert-butyl-28,30-di-hydroxy-27,29-di-(N-pentyl-aminocarbonylmethoxyl)-2,3-dihomo-3-oxacalix[4] arene] | 117.7 to 119.3 °C | 41% | 66% | 1.7 ± 0.4 µM | 49% | 18% | 12% |  |  |  |  |  |  |  |  |  |
| CC(C)NC(=O)COc1c2cc(C(C)(C)C)cc1Cc1cc(C(C)(C)C)cc(c1O)Cc1cc(C(C)(C)C)cc(c1OCC(=O)NC(C)C)Cc1cc(C(C)(C)C)cc(c1O)COC2 [Compound 4I, 7,13,19,25-tetra-tert-butyl-28,30-di-hydroxy-27,29-di-(N-isopropyl-aminocarbonylmethoxyl)-2,3-dihomo-3-oxa calix[4]arene] | 133.3 to 135.7 °C | 17% | 45% |  | 44% | 9% | 16% |  |  |  |  |  |  |  |  |  |
| CC(C)(C)c1cc2c(O)c(c1)Cc1cc(C(C)(C)C)cc(c1OCC(=O)NCCO)Cc1cc(C(C)(C)C)cc(c1O)Cc1cc(C(C)(C)C)cc(c1OCC(=O)N(CCO)CCO)COC2 [Compound 4S, 7,13,19,25-tetra-tert-butyl-28,30-di-hydroxy-27-(N,N-bis(2-hydroxyethyl)-aminocarbonylmethoxyl)-29-(N-(2-hydroxyethyl)-aminocarbonylmethoxyl)-2,3-dihomo-3-oxacalix[4]arene] | 144.4 to 146.2 °C |  |  |  |  |  |  |  |  |  |  |  |  |  |  |  |
| CC(=O)O[C@H]1C(=O)[C@@]2(C)[C@H]([C@H](OC(=O)c3ccccc3)[C@]3(O)C[C@H](OC(=O)[C@H](O)[C@@H](NC(=O)c4ccccc4)c4ccccc4)C(C)=C1C3(C)C)[C@]1(OC(C)=O)CO[C@@H]1C[C@@H]2O [Paclitaxel, paclitaxel, reference compound] |  |  |  |  |  |  |  | 0.0008 µM | 0.00059 µM | 0.0027 µM | 0.005 µM | 1 nM |  |  |  |  |
| CC(C)CNC(=O)COc1c2cc(C(C)(C)C)cc1Cc1cc(C(C)(C)C)cc(c1O)Cc1cc(C(C)(C)C)cc(c1OCC(=O)NCC(C)C)Cc1cc(C(C)(C)C)cc(c1O)COC2 [Compound 4J, 7,13,19,25-tetra-tert-butyl-28,30-di-hydroxy-27,29-di-(N-isobutyl-aminocarbonylmethoxyl)-2,3-dihomo-3-oxacalix [4]arene] | 128.1 to 130.8 °C | 40% | 54% | 16.9 ± 3.2 µM | 35% | 10% | 0% |  |  |  |  |  |  |  |  |  |
| CC(C)(C)c1cc2c(O)c(c1)Cc1cc(C(C)(C)C)cc(c1OCC(=O)NCCCCN)Cc1cc(C(C)(C)C)cc(c1O)Cc1cc(C(C)(C)C)cc(c1OCC(=O)NCCCCN)COC2 [Compound 4C, 7,13,19,25-tetra-tert-butyl-28,30-di-hydroxy-27,29-di-(N-(4-aminobutyl)-aminocarbonylmethoxyl)-2,3-dihomo-3-oxacalix[4] arene] | 129.4 to 131.2 °C | 78% | 42% | 3.3 ± 0.7 µM | 96% | 64% | 55% |  |  |  |  |  | 5.4 ± 2.6 µM | 2.3 ± 0.1 µM | 5 ± 0.8 µM |  |
| CC(C)(C)c1cc2c(O)c(c1)Cc1cc(C(C)(C)C)cc(c1OCC(=O)NCCO)Cc1cc(C(C)(C)C)cc(c1O)Cc1cc(C(C)(C)C)cc(c1OCC(=O)NCCO)C2 [CLX-4, 5,11,17,23-tetra-tert-butyl-25,27-bis [N-(2-hydroxyethyl)aminocarbonylmethoxyl] calix[4]arene, reference compound] |  | 99% | 93% | 2.8 ± 0.3 µM | 92% | 94% | 18% |  |  |  |  |  | 2.1 ± 0.4 µM | 1.9 ± 0.2 µM | 6.6 ± 0.8 µM | 16% |

Further lines, with some results ahead:

| melting point | SMILES | inhibition at 10 µM ([1]; SRB) | inhibition at 10 µM ([2]; 72 h, SRB) | IC50 [2, 6] | inhibition at 10 µM ([3]; 72 h, SRB) | inhibition at 10 µM ([4]; 72 h, SRB) | inhibition at 10 µM [5, 7] | IC50 ([1]; MCF7, printed in the % inhibition column of Table 1, read-out: IC50 MCF-7 (positive control)) | IC50 ([2]; printed in the % inhibition column of Table 1, read-out: IC50 A549 (positive control)) | IC50 ([3]; HeLa, printed in the % inhibition column of Table 1, read-out: IC50 HeLa (positive control)) | IC50 ([4]; printed in the % inhibition column of Table 1, read-out: IC50 HepG2 (positive control)) | IC50 ([5]; Homo sapiens, HUVEC, printed in the % inhibition column of Table 1, read-out: IC50 HUVEC (positive control)) | IC50 [1, 8] | IC50 [3, 9] | IC50 [4, 10] | % inhibition at 10 μM HUVEC ([5]; 10 μM, 72 h, SRB, toxicity to normal cells) |
| --- | --- | --- | --- | --- | --- | --- | --- | --- | --- | --- | --- | --- | --- | --- | --- | --- |
| 114.6 to 115.9 °C | CC(C)(C)c1cc2c(O)c(c1)Cc1cc(C(C)(C)C)cc(c1OCC(=O)NCCc1ccccc1)Cc1cc(C(C)(C)C)cc(c1O)Cc1cc(C(C)(C)C)cc(c1OCC(=O)NCCc1ccccc1)COC2 [Compound 4O, 7,13,19,25-tetra-tert-butyl-28,30-di-hydroxy-27,29-di-(N-phenethyl-aminocarbonylmethoxyl)-2,3-dihomo-3-oxacalix [4]arene] | 45% | 63% | 12.6 ± 2 µM | 60% | 9% | 35% |  |  |  |  |  |  |  |  |  |
| 120.7 to 123.3 °C | CC(C)(C)c1cc2c(O)c(c1)Cc1cc(C(C)(C)C)cc(c1OCC(=O)NCCO)Cc1cc(C(C)(C)C)cc(c1O)Cc1cc(C(C)(C)C)cc(c1OCC(=O)NCCc1ccccc1)COC2 [Compound 4R, 7,13,19,25-tetra-tert-butyl-28,30-di-hydroxy-27-(N-phenethyl-aminocarbonylmethoxyl)-29-(N-(2-hydroxyethyl)-aminocarbonylmethoxyl)-2,3-dihomo-3-oxacalix[4]arene] |  |  |  |  |  |  |  |  |  |  |  |  |  |  |  |
| 138.3 to 140.5 °C | CC(C)(C)c1cc2c(O)c(c1)Cc1cc(C(C)(C)C)cc(c1OCC(=O)NCCO)Cc1cc(C(C)(C)C)cc(c1O)Cc1cc(C(C)(C)C)cc(c1OCC(=O)NC1CCCC1)COC2 [Compound 4Q, 7,13,19,25-tetra-tert-butyl-28,30-di-hydroxy-27-(N-clopentyl-aminocarbonylmethoxyl)-29-(N-(2-hydroxyethyl)-aminocarbonylmethoxyl)-2,3-dihomo-3-oxacalix[4]arene] |  |  |  |  |  |  |  |  |  |  |  |  |  |  |  |
| 183.7 to 186.4 °C | CC(C)(C)c1cc2c(O)c(c1)Cc1cc(C(C)(C)C)cc(c1OCC(=O)NCc1ccccc1)Cc1cc(C(C)(C)C)cc(c1O)Cc1cc(C(C)(C)C)cc(c1OCC(=O)NCc1ccccc1)COC2 [Compound 4N, 7,13,19,25-tetra-tert-butyl-28,30-di-hydroxy-27,29-di-(N-benzyl-aminocarbonylmethoxyl)-2,3-dihomo-3-oxacalix[4] arene] | 43% | 64% | 6.8 ± 0.5 µM | 49% | 10% | 21% |  |  |  |  |  |  |  |  |  |
| 157.6 to 158.7 °C | CC(C)(C)c1cc2c(O)c(c1)Cc1cc(C(C)(C)C)cc3c1OCC(=O)NCCCCNC(=O)COc1c(cc(C(C)(C)C)cc1Cc1cc(C(C)(C)C)cc(c1O)C3)COC2 [Compound 4G] | 34% | 21% |  | 40% | 16% | 34% |  |  |  |  |  |  |  |  |  |
| 138.9 to 141.2 °C | CCNC(=O)COc1c2cc(C(C)(C)C)cc1Cc1cc(C(C)(C)C)cc(c1O)Cc1cc(C(C)(C)C)cc(c1OCC(=O)NCC)Cc1cc(C(C)(C)C)cc(c1O)COC2 [Compound 4H, 7,13,19,25-tetra-tert-butyl-28,30-di-hydroxy-27,29-di-(N-ethyl-aminocarbonylmethoxyl)-2,3-dihomo-3-oxacalix [4]arene] | 37% | 31% |  | 41% | 31% | 6% |  |  |  |  |  |  |  |  |  |
